# Data reported in patent US20080248008A1, “Inhibitors of Protein Kinase a Anchoring” (priority 2004, published 2008).
# Assays:
# [1] = Circular dichroism, α helical content; type: physicochemical
# Experimental: Circular Dichroism. CD spectra were recorded by using a Jasco J-810 spectropolarimeter (Jasco). Measurements were performed at 25° C. by using a quartz cuvette (Starna) with a path length of 0.1 cm. All the measurements were performed with a peptide concentration of 0.10 mg/ml in PBS containing 0-75% trifluoroethanol (TFE). Samples were scanned five times at 20 nm/min with a bandwidth of 1 nm and a response time of 1 s, over the wavelength range 190 to 260 nm. The data were averaged, and the spectrum of a peptide-free control sample was subtracted. The α helical content was calculated after smoothing (means-movement method; convolution width, 13) from ellipticity data, using the neural network program CDNN version 2.1. All measurements were conducted three times.
# Human RIα = target: T1, Human RIα (Homo sapiens, UniProt P10644); assay: R-overlay with human RIα; type: binding; conditions: equal amounts of human or bovine RIα, n=3
# T1 construct: made in house; host or cells: E. coli BL21 (B121 [sic])
# Experimental: R-overlay. R-overlays were conducted as described, using ^32P-labeled recombinant murine RII (Hausken, Z. E., et al., 1998 in Protein Targeting Protocols, ed. Clegg, R. A. (Humana, Totowa, N.J.), Vol. 88, pp. 47-64) or recombinant bovine RI (A98S) or by cold RI-overlay where bound RIα was detected by Western blot. Cold RI-overlay was performed by incubating the membranes with 250 nM RI overnight at 4° C., then the membranes were washed five times in TBST for 5 min. Detection of RI was performed using an anti-RI rabbit polyclonal antibody (Santa Cruz) at a concentration of 0.2 μg/μl for 1 hour at 4° C. Then the membranes were washed five times for 5 minutes in PBS followed by incubation with HRP-conjugated anti-rabbit IgGs (1:5000) for 1 hour at 4° C. The membranes were washed in PBS as described above before detection by Supersignal West Dura Extended Duration Substrate (Pierce).
# The MEME3 sequence was synthesized on a membrane and RIα binding analysed by R-overlay using equal amounts of either human or bovine RIα (FIG. 3C).
# PKA type I = target: T2, PKA type I (Mus musculus, UniProt Q9DBC7); assay: Solid phase immobilization from Y-1 adrenal cell lysate, PKA type I; type: binding; conditions: overnight
# T2 construct: host or cells: mouse Y-1 adrenocortical cells (lysate)
# Experimental: Solid phase assay and cell lysate. 5×10^6 Y1 cells or 20×10^6 Jurkat T cells lysed in 150 mM NaCl, 1% NP-40, 0.5% deoxycholate, 0.1% SDS and 50 mM Tris HCl (7.8) were incubated overnight at 4° C. with MEME3 and SM3 peptides synthesized on membranes (Autospot, Intavis, AG). The membranes were washed two times for 10 minutes in lysis buffer and thereafter in high salt lysis buffer (1 M NaCl) before boiling in SDS-PAGE loading buffer.
# A solid phase immobilization assay (schematic illustration in FIG. 24, left panel) was used to analyse endogenous PKA binding to MEME3. MEME3 and SM3 peptides synthesized in triplicate on membranes were incubated overnight in lysate from Y-1 adrenal cells. Thereafter bound proteins were eluted, subjected to 10% PAGE and analysed by immunoblotting using specific antibodies against PKA-RIα, PKA-C and PKA-RIIα subunits.
# RI = target: T3, RI (Homo sapiens, UniProt P10644); assay: Co-immunoprecipitation with RI in transfected HEK293 cells; type: cell-based; conditions: HEK293 cells transfected with GFP-fusion constructs
# T3 construct: endogenous in cells; host or cells: HEK293 (transfected only with GFP-peptide constructs)
# Experimental: HEK293 cells at […] were transfected with ten μg of plasmid DNA (GFP, GFP-MEME3 or GFP-Scrambled MEME3) by using the CaCl2 method. Cells were lysed after 30 hours in lysis buffer (20 mM Hepes, pH 7.5/150 mM NaCl/1 mM EDTA/1% Triton X-100) with protease inhibitors (Complete Mini, EDTA-free tablets, Roche).
# Immunoblot analysis. Immunocomplexes and lipid raft fractions were analysed on a 10, 15% or 4-20% PAGE and blotted onto PVDF membranes. The filters were blocked in 5% non-fat dry milk in TBST for 30 minutes at RT, incubated 1 hour at RT (or overnight at 4° C.) with primary antibodies, washed four times 5 minutes in TBST with 0.1% Tween-20 and incubated with a horseradish-peroxidase-conjugated secondary antibody. Blots were developed by using Supersignal West Dura Extended Duration Substrate or Supersignal West Pico substrate (Pierce).
# Antibodies. RI or RII were immunoprecipitated with polyclonal antibodies against human RI or human RII at a 3 μg/ml dilution (Santa Cruz Biotechnology). MEME3 or scrambled peptide was immunoprecipitated with 1.5 μl of anti-GFP antiserum (Invitrogen). […]
# Immunocomplexes were analysed on 10% PAGE (B and C) or 15% PAGE (D) and subjected to Western blotting using anti-GFP, anti-RI or anti-RII as indicated and blotted onto PVDF membranes. […]
# T1 sequence (P10644 whole entry): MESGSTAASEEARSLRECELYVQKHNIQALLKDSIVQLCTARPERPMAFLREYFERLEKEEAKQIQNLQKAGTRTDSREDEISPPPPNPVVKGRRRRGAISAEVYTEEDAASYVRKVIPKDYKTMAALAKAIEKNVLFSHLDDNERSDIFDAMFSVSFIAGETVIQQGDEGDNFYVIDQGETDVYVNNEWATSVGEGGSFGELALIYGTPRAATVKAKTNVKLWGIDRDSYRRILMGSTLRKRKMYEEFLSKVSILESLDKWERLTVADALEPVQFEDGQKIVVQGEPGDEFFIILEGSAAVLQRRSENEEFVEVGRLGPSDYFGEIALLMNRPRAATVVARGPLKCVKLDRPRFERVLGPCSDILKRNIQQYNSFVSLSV
Compound,helicity ([1]; 50% TFE) [%],human RIα binding (R-overlay) (Human RIα),helicity ([1]; absence of TFE) [%],"immobilization of PKA type I (PKA-RIα, PKA-C) (PKA type I)",co-precipitation with RI (RI)
LEQYANQLADQIIKEATERRRRRRRRRrr [MEME3-Arg11],39,,,,
"IEKELAQQYQNADAITLE [SM3, scrambled MEME3 negative control peptide, reference compound]",29,no RIα binding at all,7,"Neither PKA-RIα, PKA-C nor PKA-RIIα were immobilized",did not co-precipitate with RI
CC[C@H](C)[C@H](NC(=O)[C@H](CCC(N)=O)NC(=O)[C@H](CC(=O)O)NC(=O)[C@H](C)NC(=O)[C@H](CC(C)C)NC(=O)[C@H](CCC(N)=O)NC(=O)[C@H](CC(N)=O)NC(=O)[C@H](C)NC(=O)[C@H](Cc1ccc(O)cc1)NC(=O)[C@H](CCC(N)=O)NC(=O)[C@H](CCC(=O)O)NC(=O)[C@@H](N)CC(C)C)C(=O)N[C@H](C(=O)N[C@@H](CCCCN)C(=O)N[C@@H](CCC(=O)O)C(=O)N[C@@H](C)C(=O)N[C@H](C(=O)N[C@@H](CCC(=O)O)C(=O)N[C@@H](CCCCNC(=O)c1ccc2c(c1)C(=O)OC21c2ccc(O)cc2Oc2cc(O)ccc21)C(N)=O)[C@@H](C)O)[C@@H](C)CC [MEME3],49,bound with similar affinity to MEME3 as did bovine RIα,12,Only PKA type I was immobilized,Co-precipitation of MEME3 with RI
